# Data taken from US9023797B2 (priority 2012, dated 2015).
# System: Virus
# Assay: Design of Experiment study of viral inactivation process variables
# Assay type: cell-based
# Details: 30 mM caprylate, albumin 5%, pH 4.4, 40° C., 120 min
compound,measurement,value
"CCCCCCCC(=O)O [caprylate, octanoic acid]",predicted LRV (equivalent of 100%),2.16
same,predicted LRV on the 0 to 100 scale (maximized),100%
